Measurements taken from patent publication US9662347B2, “Method for inhibiting the induction of cell death by inhibiting the synthesis or secretion of age-albumin in cells of the mononuclear phagocyte system” (Gachon University of Industry-Academic Cooperation …, priority 2010, dated 2017).

Legend:
[1] = test system: α-synuclein, TNF-α and AGE-albumin in human microglial cells; type: cell-based; conditions: for expression level of α-synuclein or TNF-α in human microglial cells: PCR and immunoblotting; for expression level of AGE-albumin: irrespective of rotenone treatment
Protocol: Human microglial cells were cultured at 37° C. in DMEM (Gibco, 10% FBS (Gibco), 0.1% gentamicin (Gibco), a high concentration of glucose) at 37° C. in a 5% CO2 incubator. Then, the microglial cells were exposed to rotenone (Sigma, 1 nM), a causative agent of Parkinson's disease, for 10 days or to 6-hydroxydopamine (6-OHDA) for 24 hrs to prepare a cell model of Parkinson's disease.
α-Synuclein or TNF-α is present at a high level in the brain tissue of Parkinson's disease patients.

[2] = test system: AGE-albumin, RAGE, and Bax in mouse brain tissues; assay: Rotenone mouse model, fluoroimmunostaining of AGE-albumin, RAGE and Bax in brain tissues; type: in vivo; conditions: versus rotenone alone; one week and one month
Protocol: (§2) The animal models of Parkinson's disease were anaesthetized with ketamine (0.75 mg/kg body weight) and rompun (0.2 mg/kg body weight) prior to surgical procedures. For in vivo treatments, phosphate buffered saline (PBS) and sRAGE (10 ng/μL) were dissolved at a concentration of 1 mM in sterile water and kept at 4° C. until use. The head was fixed on a stereotaxic instrument before a midline incision of the scalp skin was made. The skull was pierced with a biological electric drill at the bregma (posteriorly, 0.3 mm; laterally, 2 mm) and the needle (gauge 26) on a 10-μL Hamilton syringe was lowered vertically until it reached the target area (depth, 2.5 mm). Three microliters of sRAGE were injected slowly at the rate of 1 μL per minute with an automatic microinjector. Thereafter, the syringe was removed slowly and surgical wounds were sutured with wound clips followed by topical treatment with antibiotics. For control, PBS was injected into the entorhinal cortex of normal mice.
Most mice were bred for one week and one month after injection of sRAGE. During the breeding, oral administration of rotenone still continued. Afterwards, all mice were re-anaesthetized in the same manner, and perfused transcardially with 100˜200 mL of heparinized saline at 18° C. followed by 400 mL of 4% paraformaldehyde-lysine periodate in 0.1 M sodium phosphate buffer (pH, 7.4). […]

[3] = test system: rotenone-mediated neuronal cell death; assay: Rotenone mouse model, number of neuronal cells in brain tissues (cresyl violet staining); type: in vivo; conditions: rotenone mice; for level of cell death in mouse brain tissues: substance injected into brain, one week and one month, compared to PBS
Protocol: CBL57/bL6 mice, each weighing 20-25 g, were used as experimental animals. The mice were maintained on a 12-h light-dark cycle, allowed to have access to food and water ad libitum, and acclimated for at least 1 week prior to usage. All animal experiments were approved by the Institute Animal Care and Use Committee, and were conducted humanely.
as §2
Most mice were bred for one week and one month after injection of sRAGE. During the breeding, oral administration of rotenone still continued. Afterwards, all mice were re-anaesthetized in the same manner, and perfused transcardially with 100˜200 mL of heparinized saline at 18° C. followed by 400 mL of 4% paraformaldehyde-lysine periodate in 0.1 M sodium phosphate buffer (pH, 7.4). The brains were removed, placed in the same fixative for 4 hrs at 4° C., and then transferred into ice-cold 0.1 M phosphate-buffered saline (PBS) containing 20% sucrose. […]
The relative levels of neurons in mouse brain tissues were evaluated by cresyl violet staining after PBS, rotenone, or rotenone/sRAGE administration for one week and one month before microscopy.

[4] = test system: AGE-albumin in human microglial cells; assay: AGE-albumin in human microglial cell model of stroke (oxygen and glucose deprivation); type: cell-based; conditions: for amount / expression level of AGE-albumin in stroke model cells (immunoblot): 0˜1000 μM H2O2, ascorbic acid irrespective of hypoxia and glucose deprivation; for expression level of AGE-albumin in stroke model cells: 0, 50, 200, 500, 2000 ng/mL, hypoxic and glucose-deprived
Protocol: Human microglial cells were cultured at 37° C. in DMEM (Gibco, 10% FBS (Gibco), 0.1% gentamicin (Gibco), a high concentration of glucose) at 37° C. in a 5% CO2 incubator. Then, the microglial cells were exposed to glucose-free DMEM for 1 hr within a hypoxic (5% CO2 and 95% N2) chamber (Billups-Rothenberg, Del Mar, Calif.) to prepare a cell model of stroke.
Human microglial cell models of stroke were treated with HMGB1, which is known to secrete most abundantly upon stroke to excite microglial cells. Expression levels of AGE-albumin in the human microglial cell model of stroke were quantitated at various concentrations (0, 50, 200, 500, 2000 ng/mL) of HMGB1 using immunohistochemistry (IHC), ELISA, and immunoblotting.
A Human microglial cell model of stroke was exposed to various concentrations (0, 50, 200, 500, 2000 ng/mL) of the HMGB1 inhibitor glycyrrhizic acid, and quantitatively analyzed for AGE-albumin using ELISA and immunoblotting.

[5] = test system: AGE-albumin in human microglial cells (HMO6); assay: Synthesis and secretion of AGE-albumin in human microglial cells (co-immunoprecipitation, ELISA, immunoblot); type: cell-based; conditions: for amount / expression level of AGE-albumin (immunoblot): 0˜1000 μM H2O2, ascorbic acid irrespective of Aβ1-42 treatment
Protocol: (§1) For in vitro studies, the immortalized human microglial cell line HMO6 was used. HMO6 cells were grown in Dulbecco's modified Eagle's medium (DMEM, Gibco) containing a high glucose concentration, supplemented with 10% heat-inactivated fetal bovine serum (FBS, Gibco) and […] gentamycin (Sigma-Aldrich). These cells were maintained at 37° C. under 5% CO2. HMO6 cells were exposed to Aβ1-42 (Sigma-Aldrich) at concentrations from 0 to 400 nM. HMO6 cells were then harvested 6 hrs after Aβ1-42 treatment for further analysis.
Whole human microglial cell lysates prepared before and after Aβ 1-42 treatment were subjected to immunoblotting analysis. In this regard, whole cell lysates from human microglial cells before and after treatment with 0˜400 nM Aβ 1-42 were prepared with a RIPA (radioimmunoprecipitation assay) buffer containing 1 M Tris (pH 7.5), 5 M NaCl, 10% NP-40, 10% deoxycholate and a protease inhibitor cocktail (Calbiochem). All cell lysates (1 mg protein) were incubated overnight at 4° C. with 5 mg of anti-AGE (Abcam)-conjugated sepharose beads in […] of PBS. The sepharose beads were precipitated by centrifugation at 14,000 rpm for 5 min, and washed three times with 1 mL of washing buffer containing 50 mM Tris-Cl and 500 mM NaCl (pH 8.0). The IgG-bound antigen-antibody complex was resolved on a 4-12% polyacrylamide gel (Invitrogen), followed by immunoblot analysis with the respective antibodies (1:1000, Abcam).
After removal of already synthesized albumin by use of an anti-albumin antibody, intracellular and extracellular (secreted into culture media) levels of AGE-albumin were measured using ELISA. For this, human microglial cells were treated with 0-400 nM Aβ1-42, after which the culture media (0.1 mg protein) were harvested. Separately, the cells were lyzed to prepare cell lysates (0.5 mg protein). […] Following the addition of HRP-conjugated anti-mouse secondary antibody (1:1000, Vector Laboratories) to each well, color was developed with TMB (3,3′,5,5′-tetramethylbenzidine), and reaction was stopped with an equal volume of 2 M H2SO4. Absorbance at 450 nm was read on an ELISA plate reader (VERSA Max, Molecular Devices).
Aβ1-42 is known to accumulate over a long period of time by oxidative stress.

[6] = test system: AGE-albumin in mouse blood monocytes; assay: AGE-albumin in mouse blood monocytes (immunostaining); type: cell-based; conditions: compared to non-treated cells
[7] = test system: AGE-albumin in human microglial cells and rat brain tissues; assay: Distribution and density of AGE-albumin after Aβ1-42 treatment (immunostaining, confocal microscopy); type: cell-based
Protocol: as §1
Cells were grown on Lab-Tek II slide chambers (Nunc), rinsed with PBS, fixed in methanol for 15 min, and rinsed again with PBS. […] After washing the secondary antibodies with PBS three times at regular intervals of 10 min, coverslips were mounted onto glass slides using the Vectashield mounting medium (Vector Laboratories), and examined under a laser confocal fluorescence microscope (LSM-710, Carl Zeiss).
Immunohistochemistry was conducted on murine brain tissues from normal or Alzheimer's disease rats, and human brain tissues from normal adults and Alzheimer's disease individuals [S. M. Ahn et al., PLoS ONE 3, e2829 (2008)]. […] After washing the secondary antibodies three times with PBS, coverslips were mounted onto glass slides using the Vectashield mounting medium (Vector Laboratories), and observed under a laser confocal fluorescence microscope (LSM-710, Carl Zeiss). […]

## NCCc1cc(O)c(O)cc1O [6-hydroxydopamine]
[1]
  expression level of α-synuclein or TNF-α in human microglial cells: increased

## N[C@@H](C(=O)N[C@@H]1C(=O)N2C(C(=O)O)=C(Cl)CS[C@H]12)c1ccccc1 [C-20, Cefaclor]
[2]
  AGE, albumin, Iba1, AGE-albumin, RAGE, and Bax expression / positive cells in mouse brain tissues: reduced
[3]
  level of cell death in mouse brain tissues: significantly reduced level of cell death
[3]; predominant recovery in the substantia nigra
  number of neurons in the injected region versus the non-injected region: higher number of neurons

## CC(=O)OCC1=C(C(=O)O)N2C(=O)[C@@H](NC(=O)Cc3cccs3)[C@H]2SC1 [C-21, Cephalothin sodium]
[2]
  AGE, albumin, Iba1, AGE-albumin, RAGE, and Bax expression / positive cells in mouse brain tissues: reduced
[3]
  level of cell death in mouse brain tissues: significantly reduced level of cell death

## O=C1O[C@H]([C@@H](O)CO)C(O)=C1O [ascorbic acid]
[1]
  expression level of AGE-albumin: drastically reduced
[4]
  amount / expression level of AGE-albumin in stroke model cells (immunoblot): drastically reduced
[5]
  amount / expression level of AGE-albumin (immunoblot): drastically reduced

## C=C1[C@@H](C)[C@H]2[C@H](Cc3ccccc3)NC(=O)[C@]23[C@H](OC(C)=O)/C=C/[C@@](C)(O)C(=O)[C@@H](C)C/C=C/[C@H]3[C@@H]1O [cytochalasin D]
[1]
  expression level of AGE-albumin: drastically reduced

## CC1(C)[C@@H](O[C@H]2O[C@H](C(=O)O)[C@@H](O)[C@H](O)[C@H]2O[C@@H]2O[C@H](C(=O)O)[C@@H](O)[C@H](O)[C@H]2O)CC[C@]2(C)[C@H]3C(=O)C=C4[C@@H]5C[C@@](C)(C(=O)O)CC[C@]5(C)CC[C@@]4(C)[C@]3(C)CC[C@@H]12 [glycyrrhizic acid]
[4]
  expression level of AGE-albumin in stroke model cells: significantly decreased with an increase in the concentration

## OO [hydrogen peroxide]
[1]; sequentially exposed to rotenone and H2O2 0˜1000 μM
  amounts of both α-synuclein and AGE-albumin: increased in a concentration-dependent manner
[4]
  amount / expression level of AGE-albumin in stroke model cells (immunoblot): increased in a concentration-dependent manner
[5]
  amount / expression level of AGE-albumin (immunoblot): increased in a concentration-dependent manner

## C=C(C)[C@H]1Cc2c(ccc3c2O[C@@H]2COc4cc(OC)c(OC)cc4[C@@H]2C3=O)O1 [rotenone]
[1]; 1 nM rotenone
  expression level of AGE-albumin in both cell lysate and cell culture medium: increased
[1]
  expression level of α-synuclein or TNF-α in human microglial cells: increased

## Aβ1-42: amyloid beta 1-42 (Sigma-Aldrich), activator of microglial cells
[6]
  expression level of AGE-albumin in mouse blood monocytes: higher expression level
[7]; human microglial cells and rat brain tissue (cerebral cortex) after exposure to Aβ1-42
  expression level of AGE-albumin (immunostaining): remarkable elevation
[7]; microglial cells and rat brain tissues after versus before Aβ1-42 treatment
  densities of AGE-albumin: remarkably higher
[5]; 0˜400 nM Aβ1-42
  expression level of AGE-albumin in human microglial cells (co-immunoprecipitation): increased with an increase in the concentration
[5]; compared to non-treated lysates
  level of AGE-albumin in human microglial cell lysates (ELISA): significant increase

B1: HMGB1: high motility group protein B1, excites microglial cells upon stroke (protein, UniProt P09429 1-215, looked up)
High mobility group protein B1: MGKGDPKKPRGKMSSYAFFVQTCREEHKKKHPDASVNFSEFSKKCSERWKTMSAKEKGKFEDMAKADKARYEREMKTYIPPKGETKKKFKDPNAPKRPPSAFFLFCSEYRPKIKGEHPGLSIGDVAKKLGEMWNNTAADDKQPYEKKAAKLKEKYEKDIAAYRAKGKPDAAKKGVVKAEKSKKKKEEEEDEEDEEDEEEEEDEEDEDEEEDDDDE
[4]
  expression level of AGE-albumin in stroke model cells: significantly increased with an increase in the concentration
